Measurements: ChEMBL document CHEMBL3044715, “Synthesis, spectral studies and biological evaluation of a novel series of 2-substituted-5,6-diarylsubstituted imidazo(2,1-b)-1,3,4-thiadiazole derivatives as possible anti-tubercular agents” (Med Chem Res, 2012)
pIC50: −log10 of the molar value. In brackets after ≈: the same amount, converted by molar mass. Activity calls are given as the source filed them. The calls are words filed in the database; no cut-off is given here.

Columns and labels:
[1] = test system: Vero; assay: Cytotoxicity against Chlorocebus aethiops (African green monkey) Vero cells after 72 hr by MTT assay; assay type: cell-based; conditions: Chlorocebus sabaeus
[2] = test system: Mycobacterium tuberculosis; assay: Antimycobacterial activity against Mycobacterium tuberculosis H37Rv ATCC 27294 after 5 days by Alamar blue assay; assay type: functional

Structure (SMILES)	pIC50 [1]	MIC ([2]; H37Rv ATCC 27294, 120 h) [µg/mL]	MIC [2]
COc1ccc(-c2nn3c(-c4ccc(OC)cc4)c(-c4ccc(OC)cc4)nc3s2)cc1	3.79	5 (≈ 11.3 µM)	–
COc1ccc(-c2nc3sc(S(N)(=O)=O)nn3c2-c2ccc(OC)cc2)cc1	3.61	1.25 (≈ 3 µM)	–
NNC(=O)c1ccncc1 [ISONIAZID]	< 3.35	0.25 (≈ 1.82 µM)	–
COc1ccc(-c2nn3c(-c4ccc(OC)cc4)c(-c4ccc(SC)cc4)nc3s2)cc1	3.92	10 (≈ 21.8 µM)	–
COc1ccc(-c2nc3sc(C(F)(F)F)nn3c2-c2ccc(OC)cc2)cc1	3.83	1.25 (≈ 3.08 µM)	–
CSc1ccc(-c2nc3sc(-c4ccc(F)cc4)nn3c2-c2ccccc2)cc1	–	–	inactive
CSc1ccc(-c2nc3sc(S(N)(=O)=O)nn3c2-c2ccccc2)cc1	3.72	2.5 (≈ 6.21 µM)	–
COc1ccc(-c2c(-c3ccc(SC)cc3)nc3sc(S(N)(=O)=O)nn23)cc1	3.67	2.5 (≈ 5.78 µM)	–
COc1ccc(-c2nn3c(-c4ccccc4)c(-c4ccc(C)cc4)nc3s2)cc1	–	–	inactive
COc1ccc(-c2nc3sc(-c4ccc(F)cc4)nn3c2-c2ccc(OC)cc2)cc1	3.79	5 (≈ 11.6 µM)	–
COc1ccc(-c2nn3c(-c4ccccc4)c(-c4ccc(SC)cc4)nc3s2)cc1	3.87	10 (≈ 23.3 µM)	–
COc1ccc(-c2c(-c3ccc(SC)cc3)nc3sc(C(F)(F)F)nn23)cc1	3.91	5 (≈ 11.9 µM)	–
COc1ccc(-c2c(-c3ccc(SC)cc3)nc3sc(-c4ccc(F)cc4)nn23)cc1	3.94	10 (≈ 22.3 µM)	–
Cc1ccc(-c2nc3sc(S(N)(=O)=O)nn3c2-c2ccccc2)cc1	3.77	10 (≈ 27 µM)	–
COc1c(N2CCNC(C)C2)c(F)cc2c(=O)c(C(=O)O)cn(C3CC3)c12 (stereo not given) [GATIFLOXACIN]	< 3.26	1 (≈ 2.66 µM)	–
Cc1ccc(-c2nc3sc(C(F)(F)F)nn3c2-c2ccccc2)cc1	–	–	inactive
CSc1ccc(-c2nc3sc(C(F)(F)F)nn3c2-c2ccccc2)cc1	3.86	10 (≈ 25.5 µM)	–
COc1ccc(-c2c(-c3ccccc3)nc3sc(S(N)(=O)=O)nn23)cc1	3.69	5 (≈ 12.9 µM)	–
COc1ccc(-c2c(-c3ccccc3)nc3sc(-c4ccc(F)cc4)nn23)cc1	–	–	inactive
COc1ccc(-c2c(-c3ccccc3)nc3sc(C(F)(F)F)nn23)cc1	–	–	inactive
